Measured values published in BindingDB's records for patent US20240148821 (Chugai Seiyaku Kabushiki Kaisha, 2024).
Numbered stars: 1 amine (or outer) side, 2 acyl side, 3 side chain; on linkers, the order of the positions; unused ones are H or OH. Bridge positions count the residues as written; N and C are the ends. Square brackets hold non-standard residues; d marks the D form. Peptide text beside a SMILES is read from it. * marks the point of attachment. ξ: configuration not given here. hPhe(3,5-F2-4-CF3) = N[C@@H](CCc1cc(F)c(C(F)(F)F)c(F)c1)C(=O)O; hPhe(3-Cl-4-CF3) = N[C@@H](CCc1ccc(C(F)(F)F)c(Cl)c1)C(=O)O; hPhe(3-F,4-CF3) = N[C@@H](CCc1ccc(C(F)(F)F)c(F)c1)C(=O)O; NMeGly(COCH2cHex) = CN[C@H](C(=O)O)C(=O)CC1CCCCC1; Piperazinyl(4-(3-oxetanyl)) = C1OCC1N1CCN(*)CC1; X55 = Cn1ccc2ccc(CC[C@H](N[*:1])C(=O)[*:2])cc21; X101 = CN([C@@H](CCc1cscn1)C(=O)[*:2])[*:1]; NMedβ3hAla = C[C@H](CC(=O)[*:2])N(C)[*:1]; NMeGly(cPent) = CN[C@H](C(=O)O)C1CCCC1; NMehCha = CN[C@@H](CCC1CCCCC1)C(=O)O; NMeCha = CN[C@@H](CC1CCCCC1)C(=O)O; cisHyp = O=C(O)[C@@H]1C[C@H](O)CN1; ξPro(4,4-F2) = O=C(O)C1CC(F)(F)CN1; Hyp = O=C(O)[C@@H]1C[C@@H](O)CN1; NMeChg = CN[C@H](C(=O)O)C1CCCCC1; NMeI = CC[C@H](C)[C@H](NC)C(=O)O; N(CH2CH2)2CF2 = FC1(F)CCN(*)CC1; NMeD = CN[C@@H](CC(=O)O)C(=O)O; NMeL = CN[C@@H](CC(C)C)C(=O)O; Cba = N[C@@H](CC1CCC1)C(=O)O; NMeV = CN[C@H](C(=O)O)C(C)C; d(β3hA) = C[C@@H](N)CC(=O)O; Ac7c = NC1(C(=O)O)CCCCCC1; NMeA = CN[C@@H](C)C(=O)O; Piperidide = C1CCN(*)CC1; Pyrrolidide = C1CCN(*)C1; Ac5c = NC1(C(=O)O)CCCC1; Aze = O=C(O)[C@@H]1CCN1; Ac4c = NC1(C(=O)O)CCC1; ξAze = O=C(O)C1CCN1; ξP = O=C(O)C1CCCN1; Sar = CNCC(=O)O

Target: GTPase KRas (G12D) and Son of Sevenless Homolog 1 (SOS) (Homo sapiens, UniProt P01116, G12D)
Sequence (P01116 whole entry G12D): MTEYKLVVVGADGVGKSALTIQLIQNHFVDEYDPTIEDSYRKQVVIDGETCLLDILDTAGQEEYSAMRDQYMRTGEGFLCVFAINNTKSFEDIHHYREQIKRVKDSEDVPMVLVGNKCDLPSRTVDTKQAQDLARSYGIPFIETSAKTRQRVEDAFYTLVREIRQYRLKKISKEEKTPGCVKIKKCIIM
Sequence (Q07889 whole entry, further chain): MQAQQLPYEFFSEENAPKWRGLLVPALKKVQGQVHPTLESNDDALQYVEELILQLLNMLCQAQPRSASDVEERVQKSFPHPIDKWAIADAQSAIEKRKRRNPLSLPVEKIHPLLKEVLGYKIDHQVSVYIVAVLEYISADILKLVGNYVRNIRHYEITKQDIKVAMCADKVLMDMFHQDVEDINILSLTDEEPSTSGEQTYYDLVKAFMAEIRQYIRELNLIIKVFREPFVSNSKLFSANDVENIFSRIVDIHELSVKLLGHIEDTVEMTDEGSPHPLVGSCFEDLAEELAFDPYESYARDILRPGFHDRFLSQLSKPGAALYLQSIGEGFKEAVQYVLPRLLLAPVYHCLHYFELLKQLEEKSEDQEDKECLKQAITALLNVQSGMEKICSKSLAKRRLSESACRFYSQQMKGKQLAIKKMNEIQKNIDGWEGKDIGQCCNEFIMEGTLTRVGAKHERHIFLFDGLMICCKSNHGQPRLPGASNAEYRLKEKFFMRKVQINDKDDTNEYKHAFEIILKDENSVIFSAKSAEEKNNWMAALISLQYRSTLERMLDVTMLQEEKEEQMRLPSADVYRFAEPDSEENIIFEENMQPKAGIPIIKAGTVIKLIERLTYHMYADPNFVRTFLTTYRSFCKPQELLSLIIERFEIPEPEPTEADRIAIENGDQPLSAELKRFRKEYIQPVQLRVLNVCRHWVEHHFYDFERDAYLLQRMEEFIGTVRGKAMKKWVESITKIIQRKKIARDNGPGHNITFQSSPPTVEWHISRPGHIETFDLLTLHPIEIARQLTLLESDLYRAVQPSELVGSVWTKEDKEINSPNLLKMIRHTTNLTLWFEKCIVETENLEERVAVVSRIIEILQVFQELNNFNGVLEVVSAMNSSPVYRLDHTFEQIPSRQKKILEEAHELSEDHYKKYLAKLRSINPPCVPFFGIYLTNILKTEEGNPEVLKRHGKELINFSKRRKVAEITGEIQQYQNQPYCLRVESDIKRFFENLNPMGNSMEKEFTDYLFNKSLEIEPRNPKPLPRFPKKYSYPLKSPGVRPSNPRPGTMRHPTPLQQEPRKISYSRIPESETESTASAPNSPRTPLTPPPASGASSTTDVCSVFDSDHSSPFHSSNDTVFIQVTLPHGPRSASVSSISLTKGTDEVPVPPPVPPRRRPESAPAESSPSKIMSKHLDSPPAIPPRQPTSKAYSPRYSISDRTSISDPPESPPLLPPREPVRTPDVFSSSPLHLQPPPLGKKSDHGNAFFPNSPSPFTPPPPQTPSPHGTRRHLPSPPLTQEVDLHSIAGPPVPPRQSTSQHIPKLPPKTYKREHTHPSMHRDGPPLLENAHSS
Assay: AlphaScreen Assay
Method: Protein-protein interaction inhibition (PPI) between Kras and SOS1 was measured by energy transfer from nickel-conjugated donor beads to streptavidin-conjugated acceptor beads using biotin-tagged human Kras expressed in E. coli and loaded with GDP after purification and His-tagged human SOS1 enzyme. This measurement utilizes the phenomenon in which donor beads are irradiated with light at 680 nm, such that energy is transferred to acceptor beads through singlet oxygen and light at 520-620 nm is detected from the acceptor beads.

| Structure (SMILES) | IC50 |
| --- | --- |
| CC[C@H](C)[C@@H]1NC(=O)[C@H](CC(C)C)N(C)C(=O)C[C@@H](C(=O)N2CCCC2)N(C)C(=O)[C@H](C2CCCC2)N(C)C(=O)C2(CCCC2)NC(=O)[C@H](CC(=O)N2CCC(F)(F)CC2)N(C)C(=O)[C@H](CCc2ccc(C(F)(F)F)c(Cl)c2)NC(=O)CN(C)C(=O)[C@H](CCC2CCCCC2)N(C)C(=O)C2CCN2C(=O)[C@H](C)N(C)C1=O (some centres undefined) [US20240148821, Compound 26] ([NMeL]I[NMeA][ξAze][NMehCha][Sar][hPhe(3-Cl-4-CF3)][NMeD](N(CH2CH2)2CF2)[Ac5c][NMeGly(cPent)][NMeD]-Pyrrolidide; lactam N-11) | 4.3 nM |
| CC(C)C[C@H]1C(=O)N[C@@H](C2CC2)C(=O)N(C)CC(=O)N(C)CC(=O)N(C)[C@@H](CCC2CCCCC2)C(=O)N(C)CC(=O)N[C@@H](CCc2ccc(C(F)(F)F)c(Cl)c2)C(=O)N2CCCC2C(=O)NC2(CCCC2)C(=O)N(C)[C@@H](C(C)C)C(=O)N[C@H](C)CC(=O)N1C (some centres undefined) [US20240148821, Compound 101] | 160 nM |
| CC[C@H](C)[C@@H]1NC(=O)[C@H](CC(C)C)N(C)C(=O)C[C@@H](C)N(C)C(=O)[C@H](C2CCCC2)N(C)C(=O)C2(CCCC2)NC(=O)C2CC(F)(F)CN2C(=O)[C@H](CCc2ccc(C(F)(F)F)c(Cl)c2)NC(=O)CN(C)C(=O)[C@H](CCC2CCCCC2)N(C)C(=O)CN(C)C(=O)CN(C)C1=O (some centres undefined) [US20240148821, Compound 107] (cyclo([Ac5c][NMeGly(cPent)][NMedβ3hAla][NMeL]I[Sar][Sar][NMehCha][Sar][hPhe(3-Cl-4-CF3)][ξPro(4,4-F2)])) | 4 nM |
| CCCC[C@@H]1NC(=O)[C@H](Cc2cccc(I)c2)NC(=O)CN(CC)C(=O)[C@H](Cc2ccc(Cl)cc2)N(CC)C(=O)CN(CC)C(=O)CN(CC)C(=O)[C@H]([C@@H](C)CC)NC(=O)[C@H](CC(C)C)N(CC)C(=O)CC(C(=O)N2CCCCC2)N(CC)C(=O)[C@H](CC(C)C)NC(=O)[C@H](Cc2ccccc2OC(F)(F)F)N(CC)C1=O (some centres undefined) [US20240148821, Compound 111] | 100 nM |
| CC[C@H](C)[C@@H]1NC(=O)[C@H](CC(C)C)N(C)C(=O)C[C@@H](C)NC(=O)[C@H](CC(C)C)N(C)C(=O)C(C)(C)NC(=O)[C@H](CC(C)C)N(C)C(=O)[C@H](CCc2cc(F)c(C(F)(F)F)c(F)c2)NC(=O)CN(C)C(=O)[C@H](C(=O)CC2CCCCC2)N(C)C(=O)CN(C)C(=O)CN(C)C1=O [US20240148821, Compound 119] | 39 nM |
| CC[C@H](C)[C@@H]1NC(=O)[C@H](CCC2CCC2)N(C)C(=O)C[C@@H](C)NC(=O)[C@H](C(C)C)N(C)C(=O)C2(CCCC2)NC(=O)C2CCCN2C(=O)[C@H](CCc2ccc(C(F)(F)F)c(Cl)c2)NC(=O)CN(C)C(=O)[C@H](CC2CCCCC2)N(C)C(=O)CN(C)C(=O)CN(C)C1=O (some centres undefined) [US20240148821, Compound 230] | 39 nM |
| C#CCC[C@H]1C(=O)N[C@@H]([C@@H](C)CC)C(=O)N(C)CC(=O)N(C)CC(=O)N(C)[C@@H](CCc2ccc(I)cc2)C(=O)N(C)CC(=O)N[C@@H](CCc2ccc(C(F)(F)F)c(Cl)c2)C(=O)N2CCCC2C(=O)NC2(CCCC2)C(=O)N(C)[C@@H](C2CCCCC2)C(=O)N[C@H](C)CC(=O)N1C (some centres undefined) [US20240148821, Compound 300] | 9.5 nM |
| CC(C)C[C@H]1C(=O)N[C@@H](CC2CCC2)C(=O)N(C)CC(=O)N(C)CC(=O)N(C)[C@@H](CC2CCCCC2)C(=O)N(C)CC(=O)N[C@@H](CCc2ccc(C(F)(F)F)c(Cl)c2)C(=O)N2CCCC2C(=O)NC2(CCCCCC2)C(=O)N(C)[C@@H](C(C)C)C(=O)N(C)[C@H](C(=O)N2CCCCC2)CC(=O)N1C (some centres undefined) [US20240148821, Compound 451] ([NMeL][Cba][Sar][Sar][NMeCha][Sar][hPhe(3-Cl-4-CF3)][ξP][Ac7c][NMeV][NMeD]-Piperidide; lactam N-11) | 10 nM |
| CC[C@H](C)[C@@H]1NC(=O)[C@H](CC(C)C)N(C)C(=O)C[C@@H](C(=O)N2CCCCC2)N(C)C(=O)[C@H](C2CCCCC2)N(C)C(=O)C2(CCCC2)NC(=O)[C@H](CCc2cscn2)N(C)C(=O)[C@H](CCc2ccc(C(F)(F)F)c(Cl)c2)NC(=O)CN(C)C(=O)[C@H](CC2CCCCC2)N(C)C(=O)CN(C)C(=O)CN(C)C1=O [US20240148821, Compound 500] ([NMeL]I[Sar][Sar][NMeCha][Sar][hPhe(3-Cl-4-CF3)][X101][Ac5c][NMeChg][NMeD]-Piperidide; lactam N-11) | 4.8 nM |
| CC[C@H](C)[C@@H]1NC(=O)[C@H](CC(C)C)N(C)C(=O)C[C@@H](C(=O)N2CCCCC2)N(C)C(=O)[C@H](CC(C)C)N(C)C(=O)C2(CCCC2)NC(=O)[C@@H]2C[C@H](O)CN2C(=O)[C@H](CCc2ccc(C(F)(F)F)c(F)c2)NC(=O)CN(C)C(=O)[C@H](CC2CCCCC2)N(C)C(=O)CN(C)C(=O)CN(C)C1=O [US20240148821, Compound 544] ([NMeL]I[Sar][Sar][NMeCha][Sar][hPhe(3-F,4-CF3)][cisHyp][Ac5c][NMeL][NMeD]-Piperidide; lactam N-11) | 2.2 nM |
| CC[C@H](C)[C@@H]1NC(=O)[C@H](CC(C)C)N(C)C(=O)C[C@@H](C(=O)N2CCN(C3COC3)CC2)NC(=O)[C@H]([C@@H](C)CC)N(C)C(=O)C2(CCCC2)NC(=O)C2CCCN2C(=O)[C@H](CCc2ccc(C(F)(F)F)c(Cl)c2)NC(=O)CN(C)C(=O)[C@H](C(=O)CC2CCCCC2)N(C)C(=O)CN(C)C(=O)CN(C)C1=O (stereo partly drawn) [US20240148821, Compound 1191] ([NMeL]I[Sar][Sar][NMeGly(COCH2cHex)][Sar][hPhe(3-Cl-4-CF3)][ξP][Ac5c][NMeI]D-{Piperazinyl(4-(3-oxetanyl))}; lactam N-11) | 6.7 nM |
| CC[C@H](C)[C@@H]1NC(=O)[C@H](CC(C)C)N(C)C(=O)C[C@@H](C(=O)N2CCCC2)N(C)C(=O)[C@H](C2CCCCC2)N(C)C(=O)C2(CCC2)NC(=O)C2CC(F)(F)CN2C(=O)[C@H](CCc2cc(F)c(C(F)(F)F)c(F)c2)NC(=O)CN(C)C(=O)[C@H](C(=O)CC2CCCCC2)N(C)C(=O)CN(C)C(=O)CN(C)C1=O (some centres undefined) [US20240148821, Compound 1192] ([NMeL]I[Sar][Sar][NMeGly(COCH2cHex)][Sar][hPhe(3,5-F2-4-CF3)][ξPro(4,4-F2)][Ac4c][NMeChg][NMeD]-Pyrrolidide; lactam N-11) | 0.39 nM |
| CC[C@H](C)[C@@H]1NC(=O)[C@H](CC(C)C)N(C)C(=O)C[C@@H](C)NC(=O)[C@H](CC(C)C)N(C)C(=O)C2(CCCC2)NC(=O)[C@@H]2C[C@@H](O)CN2C(=O)[C@H](CCc2ccc(C(F)(F)F)c(F)c2)NC(=O)CN(C)C(=O)[C@H](CC2CCCCC2)N(C)C(=O)CN(C)C(=O)CN(C)C1=O [US20240148821, Compound 1483] (cyclo([Ac5c][NMeL][d(β3hA)][NMeL]I[Sar][Sar][NMeCha][Sar][hPhe(3-F,4-CF3)][Hyp])) | 34 nM |
| CC[C@H](C)[C@@H]1NC(=O)[C@H](CC(C)C)N(C)C(=O)C[C@@H](C(=O)N2CCCCC2)N(C)C(=O)[C@H](C2CCCC2)N(C)C(=O)C2(CCCC2)NC(=O)[C@@H]2CCCN2C(=O)[C@H](CCc2ccc3ccn(C)c3c2)NC(=O)CN(C)C(=O)[C@H](CC2CCCCC2)N(C)C(=O)[C@@H]2CCN2C(=O)[C@H](C)N(C)C1=O [US20240148821, Compound 2065] ([NMeL]I[NMeA][Aze][NMeCha][Sar][X55]P[Ac5c][NMeGly(cPent)][NMeD]-Piperidide; lactam N-11) | 16 nM |
